# Results taken from publication PMC5356016, “Suppression of Sin3A activity promotes differentiation of pluripotent cells into functional neurons” (Scientific Reports, 2017).
# “Also recorded” adds a separate entry of the source.
# What was measured:
# P19 cells = assay: Neuronal differentiation of P19 cells (immunocytochemistry, western blot, RT-PCR); format: cell-based, mouse; details: 30 μM TAT, 10 days, Tuj1 antibody
# Sin3A PAH2 = details: Mad1 protein sequence 6–21, ref [34]; cited from earlier work
# Description: (§1) If this proposal is correct, a synthetic inhibitor of Sin3A-REST interactions should promote neurogenesis of these cells. Previous studies have shown that the N-terminal PAH1 and PAH2 domains of Sin3A bind to the N-terminal region of REST[6].
# [1] = system: Sin3A PAH1-REST interaction; assay: Competitive ELISA, inhibition of PAH1-REST binding; parameters: species or system mouse; details: peptide 0-100 μM pre-incubated 2 h, room temperature, GST-REST 2 μg/mL, mean ± s.d., n = 3
# [2] = system: mouse Sin3A PAH2 (residues 295–385); assay: Fluorescence polarization binding to Sin3A PAH2; details: 1 μM FITC-labeled peptide, PAH1 or PAH2 0-10 μM, 20 mM Tris-HCl, 150 mM NaCl, pH 7.5, 30 min, room temperature; ex 495/em 520 nm; mean ± s.d., n = 3
# Sin3A-REST interaction = assay: Co-immunoprecipitation of Sin3A and REST from P19 cell lysates; format: biochemical, mouse; details: peptide 0, 30, 60 μM, 2 h at 4 °C, anti-REST or anti-Sin3A immunoprecipitation, western blot, at least three experiments
# Experimental: We next examined whether the Mad1 and SAP25 peptides block the Sin3A-REST interaction. First, the ability of these peptides to inhibit the associations of PAH1 and PAH2 with REST was determined using ELISA. […] However, the Mad1 and SAP25 peptides had little effect on the respective PAH1-REST and PAH2-REST interactions. The cellular inhibitory activities of these peptides were then determined using an immunoprecipitation analysis. After incubating P19 cell lysates with several concentrations of SAP25 and MAD1 peptides, REST in the cell lysates was immunoprecipitated using the anti-REST antibody. The precipitates were probed using the anti-Sin3A antibody. […]
# Figure 5 Inhibitory effect of the SAP25 and Mad1 peptides on binding of Sin3A PAH1 or PAH2 to REST. […] Binding of GST-REST to PAH1 and PAH2 was measured using the anti-GST antibody and HRP conjugated secondary antibody (mean ± s.d., n = 3). […] Immunoprecipitation was performed with antibodies against (c) REST and (d) Sin3A, and the amount of co-precipitated proteins was then determined using western blot analysis. ‘Un’ indicates no treatment with a peptide. […]
# Fluorescence polarization assay […]
# After washing with TBST, GST-REST (2 µg/mL) was added to the wells and then incubated for 2 h. The bound GST-REST to PAH1 or PAH2 was detected by using anti-GST antibody […]
# [3] = system: Sin3A PAH2-REST interaction; assay: Competitive ELISA, inhibition of PAH2-REST binding; parameters: species or system mouse; details: peptide 0-100 μM pre-incubated 2 h, room temperature, GST-REST 2 μg/mL, mean ± s.d., n = 3
# Sin3A PAH1 = details: SAP25 protein sequence 171–186, ref [35]; cited from earlier work
# Description: as §1
# [4] = system: mouse Sin3A PAH1 (residues 114–195); assay: Fluorescence polarization binding to Sin3A PAH1; details: 1 μM FITC-labeled peptide, PAH1 or PAH2 0-10 μM, 20 mM Tris-HCl, 150 mM NaCl, pH 7.5, 30 min, room temperature; ex 495/em 520 nm; mean ± s.d., n = 3
# [5] = system: voltage-gated sodium channels; format: cell-based, mouse
# [6] = system: voltage-gated sodium channels; format: cell-based, mouse; remark: listed apart in the source
molecule,measurement,setting,value
YGRKKRRQRRR [TAT],"neuronal differentiation (in words), TAT control",P19 cells,did not affect neuronal differentiation
RMNIQMLLEAADYLERX [Mad1 peptide],Kd,Sin3A PAH2,29 nM
same,inhibition of PAH1-REST binding (in words),[1],little effect
same,binding to Sin3A PAH2 (in words),[2],interact with PAH2 much more strongly than PAH1
same,inhibition of Sin3A-REST interaction (in words),Sin3A-REST interaction,much greater ability to block interactions of Sin3A with REST than the SAP25 peptide; also recorded: has inhibitory activity against REST-Sin3A interactions in cells
same,inhibition of PAH2-REST binding (in words),[3],the level of inhibition of binding of PAH2 to REST by Mad1 was greater than that of SAP25 toward PAH1-REST interactions
AEMIALAGLLQMSQGEX [SAP25 peptide],Kd,Sin3A PAH1,134 nM
same,inhibition of PAH1-REST binding (in words),[1],the level of inhibition of binding of PAH2 to REST by Mad1 was greater than that of SAP25 toward PAH1-REST interactions
same,inhibition of Sin3A-REST interaction (in words),Sin3A-REST interaction,Mad1 peptide exhibited a much greater ability to block interactions of Sin3A with REST than the SAP25 peptide
same,inhibition of PAH2-REST binding (in words),[3],little effect
same,binding to Sin3A PAH1 (in words),[4],bind PAH1 much more tightly than PAH2
"NC1=N[C@H](O)[C@H]2[C@H]3O[C@]4(O)O[C@@H]([C@@H](O)[C@@]2(N1)[C@@H]4O)[C@]3(O)CO [TTX, tetrodotoxin]",effect of TTX on action potentials elicited by current injections (in words),[5],almost completely blocked
same,effect of TTX on current injection-promoted action potentials (in words),[6],almost completely abrogated
